The source of these data is patent US11442059B2, “Method for treating a chronic itch condition by administering small molecule MrgprX4 antagonists” (The Johns Hopkins University, priority 2017, dated 2022).

Non-standard residues stand in square brackets, D forms with d. Residues, ends and D or L forms follow the SMILES beside them. *: point of attachment. Boc = CC(C)(C)OC(=O)*; OBn = c1ccc(CO*)cc1; For = O=C* Some results are limits rather than exact numbers.

The test system of series [1] is mice.
In series [2] the target is T1, MrgprA1 (Mus musculus, UniProt Q91WW5).
T1 construct: expressed in transfected cells; whole cells or crude membrane fraction
T1 sequence (Q91WW5 1-304): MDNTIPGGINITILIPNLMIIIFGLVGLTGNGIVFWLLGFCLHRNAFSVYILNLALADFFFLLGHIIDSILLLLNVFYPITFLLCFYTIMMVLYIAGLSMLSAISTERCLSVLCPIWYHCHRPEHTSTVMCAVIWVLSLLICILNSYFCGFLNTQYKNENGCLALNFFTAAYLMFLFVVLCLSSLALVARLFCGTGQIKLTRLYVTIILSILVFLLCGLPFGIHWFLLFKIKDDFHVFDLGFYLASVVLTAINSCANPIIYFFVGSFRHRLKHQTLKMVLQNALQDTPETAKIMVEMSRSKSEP
Briefly: Fura 2-AM calcium imaging, EC50 and IC50 determinations, MRGPRA1 HEK293 cells. Format: cell-based. Particulars: for activation of MRGPRA1-expressing cells (calcium): concentration-Ca2+ response, FIG. 24D. As for the experimental part:
(§1) Cells were imaged in calcium imaging buffer (CIB; 10 mM HEPES, 1.2 mM NaHCO3, 130 mM NaCl, 3 mM KCl, 2.5 mM CaCl2, 0.6 mM MgCl2, 20 mM glucose, and 20 mM sucrose at pH 7.4 and 290-300 mOsm). To monitor changes in intracellular [Ca^2+] ([Ca^2+]i), cells were loaded with either Fura 2-AM (HEK293 cells) or Fluo 4-AM (DRG neurons and mast cells) for 30 min in the dark at 37° C. in CIB just prior to imaging. With Fura 2-AM, emission at 510 nm was monitored from excitation at both 340 nm and 380 nm. With Fluo 4-AM, emission at 520 nm was monitored from excitation at 488 nm. Cells were identified as responding if the intracellular [Ca^2+] rose by either 50% compared to baseline or 50% compared to the [Ca^2+]i change assayed during addition of 50 mM KCl (neurons only). Damaged, detached, high-baseline, and motion-activated cells were excluded from analysis.
(§2) In initial screens, HEK293 cells stably expressing the murine G-protein alpha-subunit Gα15, a unique Gα protein that non-selectively couples a large variety of GPCRs to phospholipase C^30, were plated on poly-D-lysine-coated coverslips and transiently transfected with constructs encoding the MRGRPR of interest. 12-24 h later, cells were loaded with the Fura 2-AM. Unless otherwise specified, compounds were perfused into the imaging chamber for approximately thirty seconds after a baseline period was established. Response was then monitored at 5 s intervals for an additional 60 s.
HEK293 cells stably expressing either MRGPRA1, MRGPRX4, and MRGRPC11 were seeded in poly-D-lysine-coated 96-well plates at 10,000 cells/well. Cells were loaded with Fura 2-AM, washed twice, and maintained in CIB. Haem metabolites were freshly dissolved in DMSO in dim light and then diluted into a buffer comprised of 20 mM Tris and 150 mM NaCl at pH 8.8. Potential changes in pH were evaluated prior to each experiment. EC50 values were determined from dose-responses performed in triplicate, repeated 2-4 times. To determine potential antagonism by QWF against bilirubin, cells were treated with varying doses of QWF for 1 min in CIB prior to application of agonist.

The target of series [3] is T1, MrgprA1. Briefly: Microscale thermophoresis binding assay, MRGPRA1. The note with it: FIG. 24E. As to the method: (§3) Binding isotherms for MRGPRA1, MRGPRX4, and MRGRPC11 towards various ligands were determined by microscale thermophoresis with the NanoTemper monolith NT.115 instrument^27. Ligands were pre-incubated with 10 μM of the GFP-tagged receptor of interest for 5 minutes at room temperature in binding buffer (20 mM Tris and 150 mM NaCl at pH 8.8). Receptors were crudely purified as a membrane fraction from cells stably expressing the receptor^45. Haem metabolites were freshly dissolved in 0.1 M NaOH in dim light and then diluted into assay buffer. Lyophilized BAMS-22 was dissolved in binding buffer. The pH of each ligand was evaluated prior to incubation with a receptor. Samples were loaded into NT.115 Hydrophobic-Treated Capillaries from NanoTemper. Microscale thermophoretic experiments were executed using 20% LED power and 15% MST power. KDs were calculated using the law of mass action with data from three independent experiments. Binding between bilirubin and receptors was evaluated purely thermophoretically, whereas binding between BAMS-22 and MRGPRC11 was evaluated by T-Jump. Samples with dramatic deviations in initial fluorescence were excluded.

The target in series [4] is T2, MRGPRX4 (Homo sapiens, UniProt Q96LA9). Briefly: Fura 2-AM calcium imaging, EC50 determinations, MRGPRX4 HEK293 cells. Format: cell-based. The note with it: for activation of MRGPRX4-expressing cells (calcium): concentration-Ca2+ response, FIG. 24I. More on the design: expressed in transfected cells; whole cells or crude membrane fraction. As to the method: as §1, §2
T2 sequence (Q96LA9 whole entry): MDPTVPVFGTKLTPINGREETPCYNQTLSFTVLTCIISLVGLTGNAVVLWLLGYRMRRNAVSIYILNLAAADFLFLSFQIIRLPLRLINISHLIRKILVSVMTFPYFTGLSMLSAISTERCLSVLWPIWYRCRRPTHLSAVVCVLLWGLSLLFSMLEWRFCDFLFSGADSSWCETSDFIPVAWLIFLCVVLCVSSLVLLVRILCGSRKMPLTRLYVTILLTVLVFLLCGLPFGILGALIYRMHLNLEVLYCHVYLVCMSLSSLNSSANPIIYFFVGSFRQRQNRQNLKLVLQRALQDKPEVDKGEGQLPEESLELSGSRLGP
HEK293 cells stably expressing either MRGPRA1, MRGPRX4, and MRGRPC11 were seeded in poly-D-lysine-coated 96-well plates at 10,000 cells/well. Cells were loaded with Fura 2-AM, washed twice, and maintained in CIB. Haem metabolites were freshly dissolved in DMSO in dim light and then diluted into a buffer comprised of 20 mM Tris and 150 mM NaCl at pH 8.8. Potential changes in pH were evaluated prior to each experiment. EC50 values were determined from dose-responses performed in triplicate, repeated 2-4 times. […]

Series [5] has as its target T2, MRGPRX4. Briefly: Microscale thermophoresis binding assay, MRGPRX4. More on the design: expressed in transfected cells; whole cells or crude membrane fraction. Particulars: FIG. 24J. As for the experimental part: as §3
Series [6] has as its system mice. Briefly: Acute itch behaviour after injection (scratching bouts). Format: in vivo, mouse.
The target of series [7] is T1, MrgprA1. As to the kind of experiment: FLIPR calcium assay (Flexstation3), HEK cells stably expressing MrgprA1. The note with it: MrgprA1 HEK cells, FIG. 17B. The format is cell-based. As for the experimental part:
EC50s were calculated using HEK cells stably expressing either MrgprA1 or MrgprX4. Cells were loaded with FLIPR calcium imaging dye, and a Flexstation3 machine (Molecular Devices) was used for reading changes in fluorescence. Wells were run in triplicate, and all values from each plate were normalized to the highest responding well. […] The x-axis depicts a modified logarithmic scale. […] FIG. 18B is a graph depicting the EC50 for MrgprX4 for bilirubin is approximately 3 μM.

In the next series the target is T3, mouse Mrgpra1 (Mus musculus, UniProt Q91WW5).
T3 construct: expressed in transfected cells; host or cells: HEK293
T3 sequence (Q91WW5 1-304): T1 sequence (Q91WW5 1-304)
As to the kind of experiment: Ca2+ imaging / EC50 determination in HEK293 cells expressing Mrgpra1. The format is cell-based. Particulars: Mrgprs individually expressed in HEK293 cells. As for the experimental part: (§4) Lamotrigine (LTG), allopurinol, carbamazepine and oxcarbazepine (all from Sigma) were prepared fresh on the day of the experiment. These drugs were dissolved into dimethyl sulfoxide (DMSO) first, and then were diluted at least 10000× into calcium imaging buffer before use. The final concentrations of drugs for each experiment were indicated in the corresponding figure legend.
(§5) In initial experiments, HEK293 cells were plated on 100 μg/ml poly-D-lysine coated glass cover slips, and transiently transfected with vector containing Mrgprs gene, after 24-48 hours of culture, cells were loaded with Fura 2-acetomethoxy ester calcium indicator (0.5 μM, Molecular Probes) along with pluronic F-127 dispersing agent (0.1%, Molecular Probes) for 30 minutes in the dark at 37° C., then washed with calcium imaging buffer (CIB; NaCl 125 mM, KCl 3 mM, CaCl2 2.5 mM, MgCl2 0.6 mM, HEPES 10 mM, glucose 20 mM, NaHCO3 1.2 mM, sucrose 20 mM, brought to pH 7.4 with NaOH). Drugs were added to Fura 2-loaded cells and intracellular free calcium was measured using 340 nm and 380 nm excitation wavelengths with emission measured at 520 nm with a microscope based imaging system (Nikon Eclipse TE200). Changes in emission fluorescence ratios at 340/380 nm excitation were continuously monitored at 1 second intervals. Later, experiments were performed using Mrgpra1-GFP, Mrgprc11-GFP and MRGPRX4-GFP stable cell lines to confirm the findings obtained from the transiently expressing cells.
(§6) Mrgpra1 or both wild-type and mutant MRGPRX4 stably expressed HEK cells were plated overnight in 100 μl culture media on 96-well plates. […] After 1 hour of incubation at 37° C., cells were allowed to recover for 10 minutes in the dark at room temperature prior to performing intracellular calcium mobilization assay in a FLEXSTATION® multi-mode plate reader (Molecular Devices). […] Responses were determined by subtracting the minimum signal (at the basal level before adding the drug) from the maximum signal (obtained after stimulating with the drug). […]

The next series relates to 129S1/SvImJ mice. Briefly: SJS/TEN mouse model (daily oral gavage of causative drug). The format is in vivo. The note with it: mouse, in vivo. As for the experimental part:
Eight-to-ten week old male mice were orally gavaged with either causative drugs (LTG, allopurinol, oxcarbazepine) suspended in saline or saline once daily. The dosage was based on milligrams per kilogram of animal's body weight as indicated (for example, LTG 50 mg kg^−1 body weight). Skin, eyes, and mucosa, survival, body weight, physical and gross appearances (particularly on the eyes, mucosa and skins) were monitored every day.
The animals were deeply anesthetized with pentobarbital and transcardially perfused with 20 ml 0.1 M cold PBS (pH 7.4) followed with 25 ml of cold 4% paraformaldehyde (PFA). Paw skin, eyelid, spleen, lymph nodes were dissected out. postfixed in 4% PFA for more than two hours, and cryoprotected in a 20% followed by 30% sucrose solution for 24 hours each at 4° C. Tissue samples were embedded in the optimal cutting temperature (OCT) and frozen before being serially cut into 20 μm sections and placed onto slides. Hematoxylin and eosin (H&E) staining was performed using standard procedures according to the manufacturer's instruction VITROVIEW™ H&E Stain Kit). To quantify amount of apoptotic cells, terminal deoxynucleotidyl transferase dUTP nick end labeling (TUNEL) assay, a method for detecting DNA fragmentation that results from apoptotic cells by labeling the terminal end of nucleic acids, was performed by following the protocol of Apo-BrdU DNA Fragmentation Assay Kit (Biovision). To estimate the total cell number in tissue, all nuclei were stained with propidium iodide. Digital photographs were captured under confocal fluorescent microscopy at x200 magnification (Zeiss LSM 700). The number of TUNEL-positive nuclei were counted and reported as a percentage over the number of total nuclei observed in the skin's epidermis layer.

Series [8] concerns the target T2, MRGPRX4. As to the kind of experiment: Ca2+ imaging / EC50 determination in HEK293 cells expressing MRGPRX4. Format: cell-based. More on the design: expressed in transfected cells. Particulars: Mrgprs individually expressed in HEK293 cells. As for the experimental part: as §4, §5, §6
Series [9] addresses human MRGPRX3 (Mas-related G-protein coupled receptor member X3) (human) (UniProt Q96LB0). Briefly: cell-based or functional assay.
The mark [10] stands for this setting: 10 μM pre-incubated 30 minutes, 50 μM bilirubin.

Sequence of human MRGPRX3 (Mas-related G-protein coupled receptor member X3) (human) (Q96LB0 whole entry): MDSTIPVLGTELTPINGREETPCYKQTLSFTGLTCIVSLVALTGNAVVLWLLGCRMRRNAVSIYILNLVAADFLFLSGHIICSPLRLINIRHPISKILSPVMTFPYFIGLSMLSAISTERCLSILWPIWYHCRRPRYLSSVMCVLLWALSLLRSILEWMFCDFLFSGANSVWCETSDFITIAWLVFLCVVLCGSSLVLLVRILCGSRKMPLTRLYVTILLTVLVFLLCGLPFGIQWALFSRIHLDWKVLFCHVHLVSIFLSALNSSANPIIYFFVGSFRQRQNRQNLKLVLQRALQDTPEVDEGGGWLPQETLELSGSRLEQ

Turning to `S=C=Nc1cccc2ccccc12` [ANIT, α-naphthyl isothiocyanate], the “reduction in scratching bouts, Cluster KO versus WT littermates” value with mice [1] (25 mg/kg ANIT per os daily) is recorded as about 46%.

For the molecule `C=CC1=C(C)/C(=C/c2[nH]c(Cc3[nH]c(/C=C4\NC(=O)C(C)=C4C=C)c(C)c3CCC(=O)NCCS(=O)(=O)O)c(CCC(=O)NCCS(=O)(=O)O)c2C)NC1=O` [Conjugated bilirubin, bilirubin ditaurate], at MrgprA1 [2], the “activation of MRGPRA1-expressing cells (calcium)” value is recorded as “activated”. The “binding to MRGPRA1” value on MrgprA1 [3] is listed as “lower affinities compared to bilirubin”. On MRGPRX4 [4], the “activation of MRGPRX4-expressing cells (calcium)” value is on record as “activated”. For the same molecule, the “binding to MRGPRX4” value at MRGPRX4 [5] is on record as “lower affinities compared to bilirubin”.

As for `CC(C)(C)OC(=O)N[C@@H](CCC(N)=O)C(=O)N[C@H](Cc1cn(C=O)c2ccccc12)C(=O)N[C@@H](Cc1ccccc1)C(=O)OCc1ccccc1` [QWF, BOC-GLN-D-(FORMYL)TRP-PHE-BENZYLESTER] (Boc-Gln-[dW](For)-Phe-OBn), the “effect on pruritus associated with bilirubin” value in the series on mice [6] (0.25 mg/kg co-injected with bilirubin) was “significantly alleviated pruritus”. Moreover, the “effect on chloroquine-MRGPRA3 associated itch” value in the series with mice [6] (co-injected with chloroquine) is “did not attenuate”. The “scratching versus vehicle-treated animals” value in the series with mice [1] (ANIT-dosed WT animals, 1 mg/kg i.p. thirty minutes prior to behavioral analysis) is listed as “scratched significantly less”. For the same molecule, in the series on mice [1] (mouse, in vivo, ip, 1 mg/kg), the “plasma levels of total bilirubin, AST, ALT, or ALP” value was “did not change”.

On to `COc1ccc2c(c1)CC[C@@H]1[C@@H]2CC[C@]2(C)[C@@H](NCCCCCCN3C(=O)C=CC3=O)CC[C@@H]12` [U73122], for which the “effect on bilirubin calcium influx” value at MrgprA1 [7] is “blocked the calcium influx”. Moreover, on MrgprA1 [2] (setting [10]), the “effect on bilirubin-induced calcium responses, MRGPRA1” value is reported as “abolished”. For the same molecule, the “effect on bilirubin-induced calcium responses, MRGPRX4” value on MRGPRX4 [4] (setting [10]) is recorded as “inhibited”.

For the molecule `C=CC1=C(C)c2cc3[n-]c(cc4nc(cc5[n-]c(cc1n2)c(C)c5C=C)C(C)=C4CCC(=O)O)c(CCC(=O)O)c3C.[Cl-].[Fe+3]` [haemin], at MrgprA1 [2], the “activation of MRGPRA1-expressing cells (calcium)” value is “failed to activate”. For the same molecule, at MrgprA1 [3], the “binding to MRGPRA1” value is “did not bind”. Moreover, in the series with mice [6] (WT mice), the “scratching / itch elicited by injection” value is “did not induce scratching”. Moreover, the “activation of MRGPRX4-expressing cells (calcium)” value on MRGPRX4 [4] was “no effect”. For the same molecule, at MRGPRX4 [5], the “binding to MRGPRX4” value was “did not bind”.

As to `NC(=O)N1c2ccccc2CC(=O)c2ccccc21` [oxcarbazepine], the “activation of mouse Mrgpra1 (Ca2+ imaging)” value at mouse Mrgpra1 was “specifically activated”. In addition, the eye manifestation result in the series on 129S1/SvImJ mice is reported as “can also induce eye manifestation”. Moreover, on MRGPRX4 [8], the “activation of human MRGPRX4 (Ca2+ imaging)” value is reported as “specifically activated”.

For the molecule “synthetic human Beta-defensin 3 (hBD3) (from UniProt P81534 23-67) (peptide)”, in series [9], the percentage of primary human keratinocytes that responded to hBD3 (Ca^2+), after siRNA knock-down of MRGPRX3 was under 20% and the percentage of primary human keratinocytes that responded to hBD3 (Ca^2+), before MRGPRX3 knock-down is over 80%.
